Measured values as given in US11512053B2, “Arginine methyltransferase inhibitors and uses thereof” (priority 2013, dated 2022).
Where two headings read alike, the source gives them in different places.

Key:
[1] = test system: mono-methyl arginine in RKO cells; assay: RKO Methylation Assay, In Cell Western (ICW) for detection of mono-methyl arginine and DNA content; format: cell-based; details: Homo sapiens, RKO, 72 h, RKO cells, read-out: In Cell Western EC30
Text: RKO adherent cells were purchased from ATCC (American Type Culture Collection), Manassas, Va., USA. DMEM/Glutamax medium, penicillin-streptomycin, heat inactivated fetal bovine serum, 0.05% trypsin and D-PBS were purchased from Life Technologies, Grand Island, N.Y., USA. Odyssey blocking buffer, 800 CW goat anti-rabbit IgG (H+L) antibody, and Licor Odyssey infrared scanner were purchased from Licor Biosciences, Lincoln, Nebr., USA. Mono-methyl arginine antibody was purchased from Cell Signaling Technology, Danvers, Mass., USA. Methanol was purchased from VWR, Franklin, Mass., USA. 10% Tween 20 was purchased from KPL, Inc., Gaithersburg, Md., USA. DRAQ5 was purchased from Biostatus Limited, Leicestershire, UK.
RKO adherent cells were maintained in growth medium (DMEM/Glutamax medium supplemented with 10% v/v heat inactivated fetal bovine serum and 100 units/mL penicillin-streptomycin) and cultured at 37° C. under 5% CO2.
Cell treatment, In Cell Western (ICW) for detection of mono-methyl arginine and DNA content. […] Compound (100 nL) from a 96-well source plate was added directly to 384 well cell plate. Plates were incubated at 37° C., 5% CO2 for 72 hours. After three days of incubation, plates were brought to room temperature outside of the incubator for ten minutes and blotted on paper towels to remove cell media. 50 μL of ice cold 100% methanol was added directly to each well and incubated for 30 min at room temperature. After 30 min, plates were transferred to a Biotek EL406 plate washer and washed 2 times with 100 μL per well of wash buffer (1×PBS). Next 60 μL per well of Odyssey blocking buffer (Odyssey Buffer with 0.1% Tween 20 (v/v)) were added to each plate and incubated 1 hour at room temperature. Blocking buffer was removed and 20 μL per well of primary antibody was added (mono-methyl arginine diluted 1:200 in Odyssey buffer with 0.1% Tween 20 (v/v)) and plates were incubated overnight (16 hours) at 4° C. Plates were washed 5 times with 100 μL per well of wash buffer. […] The plates were washed 5 times with 100 μL per well wash buffer then 2 times with 100 μL per well of water. Plates were allowed to dry at room temperature then imaged on the Licor Odyssey machine which measures integrated intensity at 700 nm and 800 nm wavelengths. Both 700 and 800 channels were scanned.
Calculations: First, the ratio for each well was determined by:
Each plate included fourteen control wells of DMSO only treatment (minimum activation) as well as fourteen control wells for maximum activation treated with 20 μM of a reference compound. The average of the ratio values for each control type was calculated and used to determine the percent activation for each test well in the plate. Reference compound was serially diluted three-fold in DMSO for a total of nine test concentrations, beginning at 20 μM. Percent activation was determined and EC30 curves were generated using triplicate wells per concentration of compound.

[2] = target: full-length human PRMT8 isoform 1 (Homo sapiens, UniProt Q9NR22); assay: PRMT8 Biochemical Assay (3H-SAM Flashplate, peptide substrate); details: read-out: Biochemical IC50 PRMT8
Text: General Materials. S-adenosylmethionine (SAM), S-adenosylhomocysteine (SAH), bicine, Tween20, dimethylsulfoxide (DMSO), bovine skin gelatin (BSG), isopropyl-β-D-thiogalactopyranoside (IPTG), and Tris(2-carboxyethyl)phosphine hydrochloride solution (TCEP) were purchased from Sigma-Aldrich at the highest level of purity possible. ^3H-SAM was purchase from American Radiolabeled Chemicals with a specific activity of 80 Ci/mmol. 384-well streptavidin Flashplates were purchased from PerkinElmer.
Substrates. Peptide representative of human histone H4 residues 31-45 was synthesized with an N-terminal linker-affinity tag motif and a C-terminal amide cap by 21st Century Biochemicals. The peptide was purified by high-performance liquid chromatography (HPLC) to greater than 95% purity and confirmed by liquid chromatography mass spectrometry (LC-MS). The sequence was Biot-Ahx-[…]-amide (SEQ ID NO.:8).
The resulting construct encodes an N-terminal GST tag and a thrombin cleavage sequence ([…] […] […] […] SPEF) (SEQ ID NO.:9) fused directly to Met 1 of PRMT8.
Protein Expression. E. coli (BL21(DE3) Gold, Stratagene) made competent by the CaCl2) method were transformed with the PRMT8 construct and ampicillin selection. Protein over-expression was accomplished by growing the PRMT8 expressing E. coli clone and inducing expression with 0.3 mM IPTG at 16° C. The culture was grown for 12 hours, harvested by centrifugation, and stored at −80° C. for purification.
Protein Purification. […] GST-tagged PRMT8 was eluted with 50 mM Tris, 2 mM glutathione, pH 7.8. Pooled fractions were cleaved by thrombin (10U) and dialysed in buffer A. GST was removed by reloading the cleaved protein sample onto glutathione sepharose column and PRMT8 was collected in the flow-through fractions. PRMT8 was purified further by ceramic hydroxyapatite chromatography. The column was washed with 50 mM phosphate buffer, 100 mM NaCl, 5% glycerol, 5 mM β-mercaptoethanol, pH 7.8 and PRMT8 was eluted by 100 mM phosphate in the same buffer. Protein was concentrated and buffer was exchanged to 50 mM Tris, 300 mM NaCl, 10% glycerol, 5 mM β-mercaptoethanol, pH 7.8 by ultrafiltration. The purity of recovered protein was 89%.
General Procedure for PRMT8 Enzyme Assays on Peptide Substrates. The assays were all performed in a buffer consisting of 20 mM Bicine (pH=7.6), 1 mM TCEP, 0.005% BSG, and 0.002% Tween 20, prepared on the day of use. Compounds in 100% DMSO (1 ul) were spotted into a polypropylene 384-well V-bottom plates (Greiner) using a Platemate Plus outfitted with a 384-channel head (Thermo Scientific). DMSO (1 ul) was added to Columns 11, 12, 23, 24, rows A-H for the maximum signal control and 1 ul of SAH, a known product and inhibitor of PRMT8, was added to columns 11, 12, 23, 24, rows I-P for the minimum signal control. A cocktail (40 ul) containing the PRMT8 enzyme was added by Multidrop Combi (Thermo-Fisher). The compounds were allowed to incubate with PRMT8 for 30 min at room temperature, then a cocktail (10 ul) containing ^3H-SAM and peptide was added to initiate the reaction (final volume=51 ul). The final concentrations of the components were as follows: PRMT8 was 1.5 nM, ^3H-SAM was 50 nM, non-radiolabeled SAM was 550 nM, peptide was 150 nM, SAH in the minimum signal control wells was 1 mM, and the DMSO concentration was 2%. The assays were stopped by the addition of non-radiolabeled SAM (10 ul) to a final concentration of 400 uM, which dilutes the ^3H-SAM to a level where its incorporation into the peptide substrate is no longer detectable. 50 ul of the reaction in the 384-well polypropylene plate was then transferred to a 384-well Flashplate and the biotinylated peptides were allowed to bind to the streptavidin surface for at least 1 hour before being washed once with 0.1% Tween20 in a Biotek ELx405 plate washer. […]

[3] = 72 hours compound incubation, mono-methyl arginine signal normalised to DNA content (DRAQ5), percent activation vs 20 μM reference compound
[4] = 72 hours incubation, mono-methyl arginine signal normalised to DNA content, single experiment or average of multiple experiments
[5] = single experiment or average of multiple experiments

full-length human PRMT8 isoform 1, sequence (Q9NR22 whole entry, canonical isoform): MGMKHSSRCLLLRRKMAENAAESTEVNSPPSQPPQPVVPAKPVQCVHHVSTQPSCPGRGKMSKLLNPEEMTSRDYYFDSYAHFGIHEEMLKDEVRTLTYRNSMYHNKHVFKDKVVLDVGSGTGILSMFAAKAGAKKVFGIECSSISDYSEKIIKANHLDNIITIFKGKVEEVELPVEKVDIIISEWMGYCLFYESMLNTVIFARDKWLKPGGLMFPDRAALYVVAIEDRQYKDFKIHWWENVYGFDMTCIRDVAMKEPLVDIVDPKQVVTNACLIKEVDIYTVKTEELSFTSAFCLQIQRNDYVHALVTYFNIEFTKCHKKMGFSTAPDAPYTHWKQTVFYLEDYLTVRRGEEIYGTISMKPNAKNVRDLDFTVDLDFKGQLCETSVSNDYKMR

SMILES | IC50 [2] | IC50 [2, 5] | EC30 [1, 3] | EC30 [1, 4]
CNCCN(C)Cc1c[nH]nc1[C@H]1CC[C@@]2(CCOC2(C)C)CC1 [Compound 106, Methyl [2-(methylamino)ethyl]([3-[(5R,8R)-1,1-dimethyl-2-oxaspiro[4.5]decan-8-yl]-1H-pyrazol-4-yl]methyl)amine] | < 100 nM | 14.5 nM | < 3000 nM | 22.7 nM
CNCCN(C)Cc1c[nH]nc1C1CCC(=O)N(CCc2ccccc2)C1 (stereo not drawn) [Compound 110] | < 100 nM | 42.9 nM | < 3000 nM | 2550 nM
CNCCN(C)Cc1c[nH]nc1[C@H]1CC[C@]2(CCN(Cc3ccc(OCCOC)cc3)C2=O)CC1 [Compound 111] | < 100 nM | 59.9 nM | < 3000 nM | 913 nM
CNCCN(C)Cc1c[nH]nc1C1CCCC(COCCC(O)CO)C1 (stereo not drawn) [Compound 113] | 101 to 1000 nM | 119 nM | 3010 to 12000 nM | 7350 nM
CCOCC1CC(COCC)CC(c2n[nH]cc2CN(C)CCNC)C1 (stereo not drawn) [Compound 119] | 101 to 1000 nM | 728 nM | < 3000 nM | 77.3 nM
CNCCN(C)Cc1c[nH]nc1[C@H]1CC[C@@]2(CCN(Cc3ccc(OCCOC)cc3)C2=O)CC1 [Compound 120] | < 100 nM | 25.1 nM | < 3000 nM | 9.8 nM
CNCCN(C)Cc1c[nH]nc1[C@H]1CC[C@]2(CCN(CC(C)C)C2=O)CC1 [Compound 124] | < 100 nM | 10.8 nM | < 3000 nM | 21.4 nM
CNCCN(C)Cc1c[nH]nc1[C@H]1CC[C@@]2(CCN(Cc3ccc(F)cc3)C2=O)CC1 [Compound 125] | < 100 nM | 9 nM | < 3000 nM | 87.6 nM
CNCCN(C)Cc1c[nH]nc1[C@H]1CC[C@@]2(CCN(Cc3cc(F)cc(F)c3)C2=O)CC1 [Compound 126] | < 100 nM | 6.5 nM | < 3000 nM | 638 nM
CNCCN(C)Cc1c[nH]nc1[C@H]1CC[C@@]2(CCN(Cc3ccccc3)C2=O)CC1 [Compound 127] | < 100 nM | 47.8 nM | < 3000 nM | 29.2 nM
CNCCN(C)Cc1c[nH]nc1[C@H]1CC[C@@]2(CCN(CC(C)C)C2=O)CC1 [Compound 129] | < 100 nM | 83.7 nM | < 3000 nM | 4.5 nM
CCOC1CC(OCC)CC(c2n[nH]cc2CN(C)CCNC)C1 (stereo not drawn) [Compound 132] | 3010 to 10000 nM | 4330 nM | – | 3.8 nM
CNCCN(C)Cc1c[nH]nc1C1CCC2(CCCCO2)CC1 (stereo not drawn) [Compound 137] | < 100 nM | 16.2 nM | < 3000 nM | 15 nM

The next lines start with results.

IC50 [2] | IC50 [2, 5] | SMILES | EC30 [1, 3] | EC30 [1, 4]
101 to 1000 nM | 252 nM | CCC(=O)N(CC1CCOCC1)[C@H]1CC[C@@H](c2n[nH]cc2CN(C)CCNC)CC1 [Compound 108] | 3010 to 12000 nM | 8550 nM
< 100 nM | 56 nM | CCC(=O)N(CC1CCOCC1)[C@H]1CC[C@H](c2n[nH]cc2CN(C)CCNC)CC1 [Compound 109] | < 3000 nM | 2480 nM
101 to 1000 nM | 196 nM | CNCCN(C)Cc1c[nH]nc1C1CCC(=O)N(Cc2ccccc2)C1 (stereo not drawn) [Compound 115] | < 3000 nM | 18.9 nM
< 100 nM | 11.8 nM | CNCCN(C)Cc1c[nH]nc1[C@H]1CC[C@H](OCCOc2ccc(OCCOC)cc2)CC1 [Compound 116] | 3010 to 12000 nM | 8900 nM
> 10000 nM | > 10000 nM | CNCCN(C)Cc1c[nH]nc1C1CC(OC(C)C)CC(OC(C)C)C1 (stereo not drawn) [Compound 118] | 3010 to 12000 nM | 9570 nM
3010 to 10000 nM | 8370 nM | CNCCN(C)Cc1c[nH]nc1C1CC(OCC(C)C)CC(OCC(C)C)C1 (stereo not drawn) [Compound 122] | – | 346 nM
< 100 nM | 24.7 nM | CNCCN(C)Cc1c[nH]nc1[C@H]1CC[C@]2(CCN(Cc3ccc(F)cc3)C2=O)CC1 [Compound 123] | < 3000 nM | 44 nM
< 100 nM | 8.2 nM | CNCCN(C)Cc1c[nH]nc1[C@H]1CC[C@]2(CCN(Cc3ccccc3)C2=O)CC1 [Compound 128] | < 3000 nM | 1080 nM
< 100 nM | 6.8 nM | CNCCN(C)Cc1c[nH]nc1C1CCC(OCCOc2ccccc2)CC1 (stereo not drawn) [Compound 136] | < 3000 nM | 35 nM
101 to 1000 nM | 116 nM | CNCCN(C)Cc1c[nH]nc1[C@H]1CC[C@H](OC2CCCCC2)CC1 [Compound 139] | < 3000 nM | 627 nM
< 100 nM | 33.9 nM | CNCCN(C)Cc1c[nH]nc1[C@H]1CC[C@@H](OC2CCCCC2)CC1 [Compound 140] | < 3000 nM | 164 nM
< 100 nM | 29.7 nM | CNCCN(C)Cc1c[nH]nc1[C@H]1CC[C@@]2(CCOC2)CC1 [Compound 141] | < 3000 nM | 132 nM
< 100 nM | 15.9 nM | CNCCN(C)Cc1c[nH]nc1[C@H]1CC[C@]2(CCOC2)CC1 [Compound 142] | < 3000 nM | 52 nM
